Data on two substances can be found in US20250127896A1, “CHIMERIC TIM4 RECEPTORS AND USES THEREOF” (CERO THERAPEUTICS HOLDINGS, INC., priority 2021, published 2025).

Entries after “also recorded” stand apart in the source; their conditions may differ.

In one data set the test system is REC-1 cells. Nature of the data set: CER T cell cytotoxicity against REC-1 mCherry cells with ibrutinib (Incucyte). The class given is cell-based. The settings on record: for cytotoxic activity of CER T cells alone (no ibrutinib) / tumor cell killing in combination with ibrutinib: REC-1 cells. The source says:
FIG. 38: CER1236 T cells have enhanced and more complete cytotoxic effect against Ibrutinib-treated REC-1 MCL cells but not untreated REC-1 MCL cells.
Ibrutinib was washed off prior to co-culture with CER T cells. […] Total fluorescence of REC-1 mCherry cells decreased as cytotoxicity occurred.

Another data set concerns phosphatidylserine (PS). Nature of the data set: Single induction plate assay: IFN-γ by CER T cells on plate-bound phosphatidylserine (ELISA). The format is cell-based. The settings on record: for IFN-γ production in response to phosphatidylserine: plate-bound PS; for IFNγ production by donor in response to increasing doses of plate-bound phosphatidylserine: three donors (31, 32, 38). The source says: (§1) FIGS. 19A-19C: CER T cells are activated and produce IFN-γ in response to phosphatidylserine engagement in a cell-free in vitro system. FIG. 19A: IFN-γ production in response phosphatidylserine (PS). IFN-γ production was induced in CER-1236 and CER-1234 T cells stimulated with PS (FIG. 19A), but not with phosphatidylethanolamine (PE) (FIG. 19B). […] FIG. 19C: CER1236 T cells are capable of recursive stimulation in vitro. Recursive IFN-γ induction with 3 serial stimulations at the indicated time points following a 24-hour rest after the first stimulation.
FIG. 33A-33C: CER T cells are activated and produce IFN-γ in response to phosphatidylserine engagement in a cell-free in vitro system. FIG. 33A: IFN-γ production in response phosphatidylserine (PS). IFN-γ production was induced in CER-1236 and CER-1234 T cells stimulated with PS (FIG. 33A), but not with phosphatidylethanolamine (PE) (FIG. 33B). […] FIG. 33C: CER1236 T cells are capable of recursive stimulation in vitro. Recursive IFN-γ induction with 3 serial stimulations at the indicated time points following a 24-hour rest after the first stimulation.
FIG. 44 are graphs showing IFNγ production in CER1234 T cells (left) or CER1236 T cells (right) from three donors in response to titrating doses of plate-bound phosphatidylserine.
FIG. 45 are graphs showing IFNγ production in CER1234 T cells or CER1236 T cells by donor in response to increasing doses of plate-bound phosphatidylserine.
FIG. 46 are graphs showing IFNγ production in CER1234 T cells or CER1236 T cells by donor in response to increasing doses of plate-bound phosphatidylserine at day 14 post-thaw.
FIG. 47 are graphs showing T cell expansion (left), IFNγ production (center), and cell viability (right) in CER1236 T cells in response to increasing doses of plate-bound phosphatidylserine.
FIG. 48 are graphs showing T cell expansion (left), IFNγ production (center), and cell viability (right) in CER1234 T cells in response to increasing doses of plate-bound phosphatidylserine.
CER T-cell activation was assessed by measuring induction of IFN-gamma by plate- and cell-based assays. Single induction plate assay: varying concentrations of phosphatidylserine (PS) or phosphatidylethanolamine (PE), a control membrane phospholipid not recognized by wild type TIM-4 (wtTIM-4), were coated onto high-binding tissue culture plates. CER T cells were added and IFN-γ levels were measured 24 hours after ligand exposure by ELISA. EC50 concentrations were determined by nonlinear regression (agonist vs. response-variable slope (4 parameters)). Induction by recursive stimulation plate assay: CER T cells were added to phosphatidylserine coated plates (2.5-20 μg/mL PS coating). Five days later, CER T cells were transferred to uncoated plates with fresh T cell optimizer media for 24 hours. Then, CER T cells were transferred again to a fresh PS coated plate. Supernatant was collected to assess IFN-γ induction by ELISA at various timepoints during re-stimulation (24, 72, and 120 hours). Cell-based assay: cytokine induction was assessed by multiparametric ELISA using conditioned supernatants harvested after 120 hours from the cytotoxicity assay described below.
T cells obtained from three different donors were transduced with CER1234 or CER1236 and incubated on titrating doses of plate-bound phosphatidylserine.
24 hour IFNγ stimulation by plate-bound phosphatidylserine aligns with day 5 post-activation expansion for CER1236 T cells. […] 24 hour IFNγ stimulation by plate-bound phosphatidylserine aligns with day 5 post-activation expansion for CER1234 T cells.
(In an ELISA, binding on a coated surface is turned into a signal by an enzyme label.)

Data set [1] has as its system phosphatidylethanolamine (PE). As to the kind of experiment: Single induction plate assay: IFN-γ by CER T cells on plate-bound phosphatidylethanolamine (control). The format is cell-based.
Text: as §1
FIG. 33A-33C: CER T cells are activated and produce IFN-γ in response to phosphatidylserine engagement in a cell-free in vitro system. FIG. 33A: IFN-γ production in response phosphatidylserine (PS). IFN-γ production was induced in CER-1236 and CER-1234 T cells stimulated with PS (FIG. 33A), but not with phosphatidylethanolamine (PE) (FIG. 33B). […]
CER T-cell activation was assessed by measuring induction of IFN-gamma by plate- and cell-based assays. […] CER T cells were added and IFN-γ levels were measured 24 hours after ligand exposure by ELISA. EC50 concentrations were determined by nonlinear regression (agonist vs. response-variable slope (4 parameters)). […] Cell-based assay: cytokine induction was assessed by multiparametric ELISA using conditioned supernatants harvested after 120 hours from the cytotoxicity assay described below.

Another data set relates to Jeko1 TMEM30A−/− cells. Nature of the data set: Uptake/engulfment of pHrodo-labeled JeKo-1 PS+ (TMEM30A−/−) cells by CER T cells. Particulars: for uptake/engulfment of JeKo-1 PS+ (TMEM30A−/−) tumor cell fragments: pHrodo label, in vitro co-culture. The class given is cell-based. The procedure:
FIG. 20: FACs and imaging-based detection of pHrodo dye-labeled tumor cell phagocytosis and endocytosis.
Statistical analysis was performed using 2-way ANOVA.

Data set [2] has as its system A2780 ovarian cancer cells. As to the kind of experiment: T cell phenotype (CCR7, CD4/CD8) and proliferation in A2780 / PARP inhibitor co-culture. Particulars: for CCR7 expression (% CCR7+ cells in Tim4+ T cells): 120 hours co-culture with olaparib-treated A2780 cells; for CER T cell proliferation: co-cultures treated with PARPi vs wtTIM-4 T cells or no drug, E:T 1:1. The class given is cell-based, human. The source says: FIGS. 27A-27B show a (FIG. 27A) schematic of chimeric Tim4 receptors, CER-1234 and CER1236 of the present disclosure; and (FIG. 27B) a schematic of assay set up for assessing immune phenotype of the chimeric Tim4 receptors in co-culture with PARP inhibitor treated ovarian cancer cells. CER-1234 and CER1236 have an extracellular Tim4 binding domain, CD28 transmembrane domain, CD28 signaling domain, TLR2 signaling domain, and CD3ζ signaling domain, and showing the orientation of the signaling domains in the chimeric Tim4 receptor constructs. A control molecule, CER-1183, having a Tim4 extracellular binding domain, a Tim4 transmembrane domain, and Tim4 signaling domain is also depicted.
Samples on bar graph from left to right: A2780+ T cell, A2780+ T cell +niraparib, and A2780+ T cell +olaparib. […] For FIGS. 29A-29C, co-culture conditions A2780+ T cell; A2780+ T cell +niraparib; A27080+ T cell +olaparib are shown from left to right in the bar graph for each donor T cell sample.
FIGS. 30A-30C show CD4/CD8 T cell ratio at 120 hours of co-culture of chimeric Tim4 receptor transduced T cells, olaparib or niraparib, and target A2780 ovarian cancer cells. Samples on bar graph from left to right: A2780+ T cell, A2780+T cell +niraparib, and A2780+ T cell +olaparib. […] For FIGS. 4A-4C, co-culture conditions A2780+ T cell; A2780+ T cell +niraparib; A27080+T cell +olaparib are shown from left to right in the bar graph for each donor T cell sample.
Expression of TIM-4, CD45RA, and CCR7 as well as CD4/CD8 ratios were evaluated by flow cytometry using commercially available fluorochrome-conjugated antibodies. Proliferation was measured by flow cytometry using precision count beads to determine the absolute counts of viable T cells at the end of the co-culture. T-cell proliferation is reported as the fold expansion of T cell counts at 120 hours relative to 0 hours.

[3] abbreviates: Donor 38, 24 hours after ligand exposure.
Setting [4] is: Donor 41, 24 hours after ligand exposure.

As for “CER-1236: chimeric Tim4 receptor: Tim4 binding domain-CD28tm-CD28-CD3z-TLR2 TIR, SEQ ID NO:19; tested as transduced T cells”, in the data set with REC-1 cells, the “cytotoxic activity of CER T cells alone (no ibrutinib)” value is “Some CER1236 T cytotoxicity against untreated REC-1 cells is observed” and the “tumor cell killing in combination with ibrutinib” value is “synergize with ibrutinib to enhance killing of REC-1 mantle cell lymphoma cells”. Moreover, the “PS EC50 (IFN-γ production)” value in the data set on phosphatidylserine (PS) (setting [3]) stood at 4.74 µg/mL. In the data set with phosphatidylserine (PS) (setting [4]), the “PS EC50 (IFN-γ production)” value came to 3.16 µg/mL. In addition, the “IFNγ production by donor on plate-bound phosphatidylserine at day 14 post-thaw” value in the data set with phosphatidylserine (PS) (day 14 post-thaw) is “produces more IFNγ across all donors compared to CER1234 T cells”. Besides, in the data set with phosphatidylserine (PS), the “IFN-γ production in response to phosphatidylserine” value is listed as “specifically produce IFN-γ in a dose-dependent manner; also recorded: produced concentration-dependent IFN-γ responses” and the “IFNγ production by donor in response to increasing doses of plate-bound phosphatidylserine” value was “shows strong activation”. Also, the “IFN-γ production in response to phosphatidylethanolamine” value in data set [1] was “but not to phosphatidylethanolamine (PE)”. Also, the “phagocytic index (frequency and magnitude of uptake)” value in the data set on Jeko1 TMEM30A−/− cells (compared to wtTim-4, CER1250 and CER1236+actin polymerization inhibitor) was “Higher frequency and magnitude of uptake”. In addition, in the data set with Jeko1 TMEM30A−/− cells, the “uptake/engulfment of JeKo-1 PS+ (TMEM30A−/−) tumor cell fragments” value was “increased uptake of JeKo-1 PS^+ tumor cell fragments; also recorded: exhibited increased engulfment of Jeko1 TMEM30A^−/− cells”. Further, the CD4/CD8 ratio entry in data set [2] (120 hours co-culture with PARPi-treated A2780, donor 38 and donor 41) was “higher CD4/CD8 ratios”. Also, in data set [2], the “CCR7 expression (% CCR7+ cells in Tim4+ T cells)” value is on record as “Higher CCR7 expression” and the “CER T cell proliferation” value is “proliferated in co-cultures treated with PARPi”.

As to “CER-1234: chimeric Tim4 receptor: Tim4 binding domain-CD28tm-CD28-TLR2 TIR-CD3z, SEQ ID NO:18; tested as transduced T cells”, in the data set with REC-1 cells (BTKi treatment in combination), the cytotoxicity is on record as > 90%. Moreover, in the data set on REC-1 cells, the “cytotoxic activity of CER T cells alone (no ibrutinib)” value is given as “limited cytotoxic activity” and the “tumor cell killing in combination with ibrutinib” value is listed as “Tumor cell killing was enhanced”. In addition, in the data set on phosphatidylserine (PS) (setting [3]), the “PS EC50 (IFN-γ production)” value was determined as 3.52 µg/mL. In addition, the “PS EC50 (IFN-γ production)” value in the data set with phosphatidylserine (PS) (setting [4]) was 1.88 µg/mL. Moreover, in the data set on phosphatidylserine (PS), the “IFN-γ production in response to phosphatidylserine” value is “specifically produce IFN-γ in a dose-dependent manner; also recorded: produced concentration-dependent IFN-γ responses”; the “IFNγ production by donor in response to increasing doses of plate-bound phosphatidylserine” value was “shows lower activation for donors 32 and 38”. The “IFN-γ production in response to phosphatidylethanolamine” value in data set [1] is listed as “but not to phosphatidylethanolamine (PE)”. Besides, the “uptake/engulfment of JeKo-1 PS+ (TMEM30A−/−) tumor cell fragments” value with Jeko1 TMEM30A−/− cells was “increased uptake of JeKo-1 PS^+ tumor cell fragments”. Further, in data set [2], the “CCR7 expression (% CCR7+ cells in Tim4+ T cells)” value is recorded as “Higher CCR7 expression” and the “CER T cell proliferation” value is listed as “proliferated in co-cultures treated with PARPi”.
